Assay results from the supplement of paper PMC13380429.

Experiments:
Details in all cases: 72 h
Caco-2 [1] = assay: cell viability relative to DMSO; higher = less toxic
HepG2 [2] = assay: as above
U2OS [3] = assay: as above
Vero E6 [4] = assay: as above
Caco-2 [5] = assay: relative viability EC50 (midpoint between 100% and the lowest measured viability); higher = less toxic
HepG2 [6] = assay: as above
U2OS [7] = assay: as above
Vero E6 [8] = assay: as above
Caco-2 [9] = assay: drug sensitivity score (DSS) for viability; higher = more toxic; extreme values may be limits of the assay
HepG2 [10] = assay: as above
U2OS [11] = assay: as above
Vero E6 [12] = assay: as above
Calu-3 [13] = assay: cell viability relative to DMSO; higher = less toxic
Calu-3 [14] = assay: relative viability EC50 (midpoint between 100% and the lowest measured viability); higher = less toxic
Calu-3 [15] = assay: drug sensitivity score (DSS) for viability; higher = more toxic; extreme values may be limits of the assay

Structure (SMILES) | cell viability (Caco-2 [1]; 1 nM) [%] | cell viability (Caco-2 [1]; 10 nM) [%] | cell viability (Caco-2 [1]; 100 nM) [%] | cell viability (Caco-2 [1]; 1000 nM) [%] | cell viability (Caco-2 [1]; 10000 nM) [%] | cell viability (HepG2 [2]; 1 nM) [%] | cell viability (HepG2 [2]; 10 nM) [%] | cell viability (HepG2 [2]; 100 nM) [%] | cell viability (HepG2 [2]; 1000 nM) [%] | cell viability (HepG2 [2]; 10000 nM) [%] | cell viability (U2OS [3]; 1 nM) [%] | cell viability (U2OS [3]; 10 nM) [%] | cell viability (U2OS [3]; 100 nM) [%] | cell viability (U2OS [3]; 1000 nM) [%] | cell viability (U2OS [3]; 10000 nM) [%] | cell viability (Vero E6 [4]; 1 nM) [%] | cell viability (Vero E6 [4]; 10 nM) [%] | cell viability (Vero E6 [4]; 100 nM) [%] | cell viability (Vero E6 [4]; 1000 nM) [%] | cell viability (Vero E6 [4]; 10000 nM) [%] | relative viability EC50 (Caco-2 [5]) [µM] | relative viability EC50 (HepG2 [6]) [µM] | relative viability EC50 (U2OS [7]) [µM] | relative viability EC50 (Vero E6 [8]) [µM] | drug sensitivity score (Caco-2 [9]) | drug sensitivity score (HepG2 [10]) | drug sensitivity score (U2OS [11]) | drug sensitivity score (Vero E6 [12]) | cell viability (Calu-3 [13]; 1 nM) [%] | cell viability (Calu-3 [13]; 10 nM) [%] | cell viability (Calu-3 [13]; 100 nM) [%] | cell viability (Calu-3 [13]; 1000 nM) [%] | cell viability (Calu-3 [13]; 10000 nM) [%] | relative viability EC50 (Calu-3 [14]) [µM] | drug sensitivity score (Calu-3 [15])
Cc1ccc(C)c([C@H](O)CNC(C)C)c1 [benzenemethanol,-2,5-dimethyl-[[(1-methylethyl)amino]methyl]] | 102 | 96.3 | 92.6 | 93.7 | 96.3 | 111 | 92.6 | 101 | 100 | 104 | 101 | 99.4 | 102 | 99.2 | 102 | 103 | 107 | 98.4 | 103 | 101 | > 10 | > 10 | > 10 | > 10 | 0 | 0 | 0 | 0 | – | – | – | – | – | – | –
O=C(Cn1ccnc1[N+](=O)[O-])NCc1ccccc1 [benznidazole] | 98 | 98.8 | 96.4 | 93.2 | 96 | 97.3 | 95.9 | 93.7 | 94.4 | 94.2 | 98 | 97.3 | 92.4 | 90 | 99.8 | 97.3 | 98.5 | 96.4 | 101 | 98.1 | > 10 | > 10 | > 10 | > 10 | 0 | 0 | 0 | 0 | – | – | – | – | – | – | –
CC(=O)O[C@]1(C(C)=O)CC[C@H]2[C@@H]3C=C(Cl)C4=CC(=O)CC[C@]4(C)[C@H]3CC[C@@]21C [chlormadinone-acetate] | 101 | 106 | 115 | 98.8 | 103 | 98.1 | 98.8 | 100 | 92 | 112 | 97.2 | 92.7 | 96.1 | 90.6 | 95 | 93.2 | 96.9 | 91.9 | 92.5 | 90 | > 10 | > 10 | > 10 | > 10 | 0 | 0 | 0 | 0 | – | – | – | – | – | – | –
C[N+]12CCC(CC1)C(OC(=O)C(O)(c1ccccc1)c1ccccc1)C2 (stereo not given) [clidinium] | 102 | 112 | 106 | 95.4 | 103 | 92.5 | 108 | 90.6 | 104 | 99.7 | – | – | – | – | – | 102 | 102 | 101 | 102 | 99.8 | > 10 | > 10 | – | > 10 | 0 | 0 | – | 0 | – | – | – | – | – | – | –
CC(C)/N=c1\cc2n(-c3ccc(Cl)cc3)c3ccccc3nc-2cc1Nc1ccc(Cl)cc1 [clofazimine] | 106 | 101 | 98.3 | 84.5 | 60.4 | 94.1 | 105 | 89.8 | 97 | 68.3 | 98 | 100 | 101 | 98.1 | 91.6 | 101 | 99.6 | 103 | 104 | 91.3 | – | – | > 10 | > 10 | 3.8 | 1.9 | 0 | 0 | 101 | 97.6 | 91.3 | 98.1 | 94.4 | > 10 | 0
CN(C)CCOC(=O)C(c1ccccc1)C1(O)CCCC1 (stereo not given) [cyclopentolate] | 96.9 | 97.6 | 93 | 100 | 102 | 103 | 115 | 97.6 | 111 | 91.3 | 100 | 96.5 | 98.4 | 97.9 | 98.5 | 99.1 | 103 | 102 | 101 | 107 | > 10 | > 10 | > 10 | > 10 | 0 | 0 | 0 | 0 | – | – | – | – | – | – | –
Oc1cc(O)c2cc(O)c(-c3cc(O)c(O)c(O)c3)[o+]c2c1 [delphinidin] | 101 | 95.5 | 90.8 | 94.6 | 83.4 | 104 | 102 | 103 | 114 | 96.5 | 103 | 104 | 98.1 | 102 | 99.2 | 100 | 98.8 | 98.3 | 92.7 | 97.9 | > 10 | > 10 | > 10 | > 10 | 0.5 | 0 | 0 | 0 | – | – | – | – | – | – | –
CCCOc1ccc(S(=O)(=O)N2CCN(CCO)CC2)cc1-c1nc2c(CCC)cn(CC)c2c(=O)[nH]1 [mirodenafil] | 105 | 111 | 96.5 | 107 | 85.6 | 105 | 98.1 | 108 | 100 | 99.7 | 102 | 104 | 99.6 | 103 | 96.3 | 100 | 101 | 101 | 94.9 | 102 | > 10 | > 10 | > 10 | > 10 | 0.1 | 0 | 0 | 0 | – | – | – | – | – | – | –
O=C(OCC(COC(=O)c1cccnc1)(COC(=O)c1cccnc1)COC(=O)c1cccnc1)c1cccnc1 [niceritrol] | 93.9 | 88.4 | 92.7 | 93.3 | 86.9 | 93.7 | 94.1 | 92.7 | 98.2 | 101 | 102 | 104 | 101 | 101 | 98.8 | 92.6 | 103 | 96.8 | 96.9 | 73.8 | > 10 | > 10 | > 10 | – | 0 | 0 | 0 | 1.5 | 98.5 | 108 | 101 | 106 | 115 | > 10 | 0
CNCCC=C1c2ccccc2CCc2ccccc21 [nortriptyline] | 108 | 86.1 | 96.4 | 97.7 | 70 | 110 | 106 | 112 | 119 | 65 | 99.5 | 96.8 | 98.1 | 97.4 | 93.8 | 106 | 106 | 102 | 90 | 79.8 | – | – | > 10 | > 10 | 1.6 | 1 | 0 | 1.6 | 100 | 98.7 | 99.4 | 96.5 | 82.1 | > 10 | 0.9
CCCCCCCCCCCCCCCCCCO [octadecan-1-ol] | – | – | – | – | – | – | – | – | – | – | – | – | – | – | – | 99.2 | 103 | 102 | 94.2 | 107 | – | – | – | > 10 | – | – | – | 0 | – | – | – | – | – | – | –
C=CC(=O)Nc1cccc(Oc2nc(Nc3ccc(N4CCN(C)CC4)cc3)nc3ccsc23)c1 [olmutinib] | 99.2 | 98.3 | 90.9 | 83.5 | 69 | 95 | 93.5 | 100 | 99.6 | 51 | 100 | 101 | 96.6 | 92.7 | 59.4 | 100 | 98.7 | 96.7 | 92.2 | 5.1 | – | – | – | 2.49 | 3.2 | 2.6 | 3.2 | 6.5 | 110 | 105 | 89 | 68.4 | 14.8 | 1.35 | 8.3
CN(C)CCN(Cc1ccccc1)c1ccccn1 [tripelennamine] | – | – | – | – | – | 108 | 111 | 101 | 89.7 | 78.9 | – | – | – | – | – | 110 | 110 | 105 | 102 | 97.1 | – | > 10 | – | > 10 | – | 1.8 | – | 0 | – | – | – | – | – | – | –
N[C@@H]1[C@H]2CN(c3nc4c(cc3F)c(=O)c(C(=O)O)cn4-c3ccc(F)cc3F)C[C@@H]12 [trovafloxacin] | 95.6 | 122 | 84.7 | 85.5 | 71.5 | 115 | 104 | 102 | 106 | 29.9 | 101 | 108 | 99.8 | 105 | 89.9 | 95.7 | 98.8 | 102 | 110 | 98.2 | – | 3.6 | > 10 | > 10 | 3.1 | 3.4 | 0 | 0 | 102 | 103 | 92.4 | 97.6 | 64.1 | – | 2.1
